This note sets out measurements from US20240050398A1, “METHOD AGAINST SNAKE ENVENOMATION” (UBI PHARMA INC., priority 2022, published 2024).

Entries after “also recorded” stand apart in the source; their conditions may differ.

Common to all, as to format: in vivo
Experiment [1] deals with venom of Protobothrops mucrosquamatus. The experiment in a line: Efficacy against death caused by hemotoxic venom in ICR mice (flavonoid pre-mixed with venom, intradermal injection). The conditions noted are these: venom 2.5 × LD50 per mouse, flavonoid 50 nmole per mouse. How it is done: The ICR mice were randomly divided into four groups, which included a pathological control group, two experimental groups (i.e., experimental groups 1 and 2), and one comparative group (n=7 mice in each group). Next, a respective one of the isorhamnetin, the quercetin, and the apigenin was mixed with a venom of Protobothrops mucrosquamatus in a volume ratio of 1:20, followed by incubation at 37° C. for 30 minutes, thereby forming a respective mixture solution. Afterward, the respective ICR mouse of each of the experimental groups 1 and 2 and the comparative group was intradermally injected with a suitable amount of the mixture solution as shown in Table 2 below. In addition, the respective ICR mouse in the pathological control group was intradermally injected with the venom of Protobothrops mucrosquamatus.
Subsequently, the survival number of the ICR mice in each group was observed and recorded at every hour until 10 hours after injection with the treating agent. The viability percentage (%) of the ICR mice in each group was calculated using the following Equation (1):
where A=viability percentage (%)
B=survival number of the ICR mice at every hour until 10 hours after injection with treating agent

Experiment [2] deals with snake venom protein mixture (cardiotoxins and high molecular weight proteins from the venom of Naja atra). The experiment is described as follows: Cutaneous ulceration caused by snake venom proteins in ICR mice, topical administration. The conditions noted are these: via topical administration. An excerpt: (§1) For further study of the efficacy of isorhamnetin and quercetin in alleviating cutaneous ulceration caused by snake venom proteins, the applicants conducted experiments using a snake venom protein mixture containing snake venom proteins having a molecular weight of not lower than 43 kD and a cardiotoxin that might cause tissue necrosis, so as to avoid sudden death of the ICR mice due to other toxins that might have interfered with the observation.
(§2) First, cardiotoxins were isolated from a suitable amount of the venom of Naja atra with reference to the methods descried in SC Sue et al., (2001), Biochemistry, 40, 12782-12794. […] Next, the cardiotoxins and the high molecular weight proteins were mixed, so as to obtain a snake venom protein mixture containing 0.5 mg/mL of the cardiotoxins and 0.025 mg/mL of the high molecular weight proteins.
For further evaluating whether or not a similar result, as that of the experimental group 2 in Section A of this example, could be obtained when the isorhamnetin was applied via topical administration immediately after a subject suffered from a venomous snake bite, the following experiments were conducted.
First, 3.1 mg of the isorhamnetin was mixed with 1 mL of petroleum jelly in a melted state at 45° C., thereby obtaining an isorhamnetin ointment. […]

In a further experiment the test system is venom of Naja nivea. The experiment in a line: Efficacy of isorhamnetin in alleviating toxicity from neurotoxic venom in ICR mice (isorhamnetin injected 30 minutes after venom). The conditions noted are these: 48th hour after injection; isorhamnetin 50 nmole per mouse 30 minutes after venom 2.5 × LD50. The protocol: To closely simulate conditions of an emergency treatment in which the subject was a victim of a venomous snake bite, in this application, the ICR mice were injected with the venom of Naja nivea and the isorhamnetin separately (with a time interval therebetween) instead of simultaneously (i.e., mixed in advance for injection).
First, the ICR mice were randomly divided into two groups, including a pathological control group (i.e., pathological control group 7) and an experimental group (i.e., experimental group 7) (n=7 mice in each group). Next, the respective ICR mouse in each group was intradermally injected with a suitable amount of the venom of Naja nivea (dose: 2.5×LD50 per mouse). After 30 minutes, the respective ICR mouse in the experimental group was intradermally injected again with a suitable amount of the isorhamnetin (dose: 50 nmole per mouse).
Subsequently, the survival number of the ICR mice in each group was observed and recorded at every hour until 48 hours after injection with the treating agent. The viability percentage (%) of the ICR mice in each group was calculated using the Equation (1).

Experiment [3] has as its system snake venom protein mixture (cardiotoxins and high molecular weight proteins from the venom of Naja atra). The experiment is described as follows: Cutaneous ulceration caused by snake venom proteins in ICR mice, intradermal injection. The note with it: for area of cutaneous ulcers compared to pathological control group (in words): 24th hour after injection, 50 nmole per mouse pre-mixed with 0.1 mL snake venom protein mixture, intradermal; for median effective dose (ED50) for reducing an area of a cutaneous ulcer: administered via intradermal injection.
Source text: as §1, §2
First, the ICR mice were randomly divided into three groups, including a pathological control group and two experimental groups (i.e., experimental groups 1 and 2) (n=7 mice in each group). Next, a respective one of the quercetin and isorhamnetin was mixed with a suitable amount of the snake venom protein mixture in a volume ratio of 1:20, followed by incubation at 37° C. for […], thereby forming a respective mixture solution. Afterward, the respective ICR mouse of the experimental groups 1 and 2 was intradermally injected with a suitable amount of the mixture solution as shown in Table 4 below. In addition, the respective ICR mouse in the pathological control group was intradermally injected with the snake venom protein mixture.
At the 24th hour after injection with the treating agent, cutaneous ulcers occurring in the ICR mice of each group were photographed and the area thereof was analyzed using ImageJ software.

For the compound `O=c1cc(-c2ccc(O)cc2)oc2cc(O)cc(O)c12` [apigenin, reference compound], the “effect against death caused by a hemotoxic venom (in words)” value (“effect against death caused” for short) in experiment [1] is reported as “may accelerate death”.
`COc1cc(-c2oc3cc(O)cc(O)c3c(=O)c2O)ccc1O` [isorhamnetin]: the “median effective dose (ED50) for reducing an area of a cutaneous ulcer” value in experiment [2] was found to be 0.6 mM. For the same compound, in the experiment with venom of Naja nivea, the “survival (in words)” value is given as “could even survive until the 48th hour”. Besides, the “effect against death caused” value in experiment [1] is listed as “effective against death caused by a hemotoxic venom”. In addition, in experiment [3], the “area of cutaneous ulcers compared to pathological control group (in words)” value is reported as “significantly reduced; also recorded: highest degree of reduction” and the “median effective dose (ED50) for reducing an area of a cutaneous ulcer” value was 0.2 mM.
On to `O=c1c(O)c(-c2ccc(O)c(O)c2)oc2cc(O)cc(O)c12` [quercetin], for which the “effect against death caused” value in experiment [1] is “effective against death caused by a hemotoxic venom”. Moreover, in experiment [3], the “area of cutaneous ulcers compared to pathological control group (in words)” value is recorded as “significantly reduced” and the “median effective dose (ED50) for reducing an area of a cutaneous ulcer” value is given as 1.2 mM.
